Values after ≈ are worked out from the molar mass of the structure shown. Where only a bound is given, the exact number is not on record here.

For three compounds, EC50 and Activity results are on record in ChEMBL document CHEMBL1144119, “1',2',3',4'-tetradehydrotubulosine, a cytotoxic alkaloid from Pogonopus speciosus” (1999).

Assay type in all cases: functional
For one assay, the system named is Lu1. As to the kind of experiment: Cytotoxicity against human Lu1 cells. As to conditions: read-out: ED50 (the source's name).
Assay [1] has as its system KB. In words: Cytotoxicity against human KB cells. As to conditions: read-out: ED50 (the source's name).
Assay [2] concerns KB. As to the kind of experiment: Cytotoxicity against human multidrug resistant KB cells in presence of vinblastine. The note with it: read-out: ED50 (the source's name).
For another assay, the system named is SW626. As to the kind of experiment: Cytotoxicity against human SW626 cells. The note with it: read-out: ED50 (the source's name).
The nature of assay [3]: Cytotoxicity against human BC1 cells. The note with it: read-out: ED50 (the source's name).
For another assay, the system named is M109. As to the kind of experiment: Cytotoxicity against mouse M109 cells. As to conditions: read-out: ED50 (the source's name).
The subject of the next assay is SK-N-SH. In words: Cytotoxicity against human SK-N-SH cells. As to conditions: read-out: ED50 (the source's name).
Another assay deals with LNCaP. In words: Cytotoxicity against human LNCAP cells. As to conditions: read-out: ED50 (the source's name).
For assay [4], the system named is KB. As to the kind of experiment: Cytotoxicity against human multidrug resistant KB cells in absence of vinblastine. As to conditions: read-out: ED50 (the source's name).
The next assay relates to Col2. As to the kind of experiment: Cytotoxicity against human Col2 cells. As to conditions: read-out: ED50 (the source's name).
The subject of a further assay is L1210. As to the kind of experiment: In vivo antitumor activity against mouse L1210 cells assessed as increase in life span at 2 mg/kg.
A further assay has as its system P388. As to the kind of experiment: In vivo antitumor activity against mouse P388 cells assessed as increase in life span at 2 mg/kg.

With `CC[C@H]1CN2CCc3cc(OC)c(OC)cc3[C@@H]2C[C@@H]1Cc1nccc2c1[nH]c1ccc(O)cc12`, the EC50 is 3.6 µg/mL (≈ 7.63 µM) with Lu1; 2.2 µg/mL (≈ 4.66 µM) with KB [1]; 9 µg/mL in the assay on KB [2]; 6.1 µg/mL (≈ 12.9 µM) with SW626; 3.9 µg/mL (≈ 8.27 µM) in [3]; 4.4 µg/mL (≈ 9.33 µM) in the assay on M109. Moreover, the EC50 with SK-N-SH was 4 µg/mL (≈ 8.48 µM); in the assay with LNCaP, 6.8 µg/mL (≈ 14.4 µM); in the assay with KB [4] it was 8.8 µg/mL (≈ 18.7 µM); with Col2, 2.8 µg/mL (≈ 5.94 µM).
With `CC[C@H]1CN2CCc3cc(OC)c(OC)cc3[C@@H]2C[C@@H]1CC1=NCCc2cc(O)c(OC)cc21` [PSYCHOTRINE], the EC50 in the assay on Lu1 was 5.7 µg/mL (≈ 12.3 µM); in the assay on KB [1], 2.8 µg/mL (≈ 6.03 µM); with KB [2] it was 9 µg/mL; with SW626, 13.3 µg/mL (≈ 28.6 µM); in assay [3] it was 3.4 µg/mL (≈ 7.32 µM); in the assay on M109, 9 µg/mL (≈ 19.4 µM). Also, the EC50 was 4 µg/mL (≈ 8.61 µM) with SK-N-SH, 2.3 µg/mL (≈ 4.95 µM) in the assay on LNCaP, 9.4 µg/mL (≈ 20.2 µM) in the assay on KB [4] and 4.5 µg/mL (≈ 9.69 µM) in the assay with Col2.
As for `CC[C@H]1CN2CCc3cc(OC)c(OC)cc3[C@@H]2C[C@@H]1C[C@H]1NCCc2c1[nH]c1ccc(O)cc21` [TUBULOSINE], the EC50 is less than 0.001 µg/mL with Lu1; less than 0.16 µg/mL in the assay on KB [1]; 0.1 µg/mL in the assay with KB [2]; 0.22 µg/mL (≈ 0.463 µM) in the assay with SW626; 0.1 µg/mL (≈ 0.21 µM) in assay [3]; 0.1 µg/mL (≈ 0.21 µM) with M109. Also, the EC50 in the assay with SK-N-SH was 0.1 µg/mL (≈ 0.21 µM); with LNCaP, less than 0.16 µg/mL; with KB [4], 0.1 µg/mL (≈ 0.21 µM); in the assay on Col2, 0.05 µg/mL (≈ 0.105 µM). The Activity in the assay on L1210 was found to be 30%; in the assay with P388, 80%.
